Laboratory results published in publication PMC3509056 (The FASEB Journal, 2012).
Substitutions are numbered along the chain they refer to.

Assays:
hFFA2 [1] = target: T1, hFFA2 (Homo sapiens, UniProt O15552, C141G); assay: beta-arrestin-2 BRET recruitment; format: cell-based
T1 sequence (O15552 1-330 C141G): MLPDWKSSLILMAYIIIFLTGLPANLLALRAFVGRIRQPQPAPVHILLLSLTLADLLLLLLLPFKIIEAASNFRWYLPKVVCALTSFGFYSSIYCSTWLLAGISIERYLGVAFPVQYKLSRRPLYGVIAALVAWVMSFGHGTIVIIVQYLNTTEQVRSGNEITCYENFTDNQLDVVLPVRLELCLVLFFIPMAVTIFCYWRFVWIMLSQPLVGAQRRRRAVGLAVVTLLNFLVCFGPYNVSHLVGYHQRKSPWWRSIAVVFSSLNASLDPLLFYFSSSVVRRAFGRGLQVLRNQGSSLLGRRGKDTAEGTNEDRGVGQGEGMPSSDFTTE

hFFA2 [2] = target: T2, hFFA2 (Homo sapiens, UniProt O15552); assay: beta-arrestin-2 BRET recruitment; format: cell-based
T2 sequence (O15552 1-330): T1 sequence (O15552 1-330 C141G) with G141C

bFFA3 = target: T3, bFFA3 (Bos taurus, UniProt A0ACM8QIV1); assay: […]GTPγS incorporation, membranes; format: biochemical
T3 sequence (A0ACM8QIV1 1-326): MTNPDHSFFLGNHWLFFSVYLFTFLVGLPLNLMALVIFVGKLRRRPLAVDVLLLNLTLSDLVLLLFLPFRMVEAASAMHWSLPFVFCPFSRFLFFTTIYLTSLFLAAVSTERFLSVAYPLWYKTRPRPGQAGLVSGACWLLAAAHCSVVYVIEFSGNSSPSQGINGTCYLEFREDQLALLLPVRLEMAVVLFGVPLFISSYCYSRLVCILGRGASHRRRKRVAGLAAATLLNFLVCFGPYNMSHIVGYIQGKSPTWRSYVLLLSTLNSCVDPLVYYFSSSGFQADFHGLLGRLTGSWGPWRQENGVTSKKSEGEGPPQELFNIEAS

hFFA3 = target: T4, hFFA3 (Homo sapiens, UniProt O14843); assay: […]GTPγS incorporation, membranes; format: biochemical
T4 sequence (O14843 1-346): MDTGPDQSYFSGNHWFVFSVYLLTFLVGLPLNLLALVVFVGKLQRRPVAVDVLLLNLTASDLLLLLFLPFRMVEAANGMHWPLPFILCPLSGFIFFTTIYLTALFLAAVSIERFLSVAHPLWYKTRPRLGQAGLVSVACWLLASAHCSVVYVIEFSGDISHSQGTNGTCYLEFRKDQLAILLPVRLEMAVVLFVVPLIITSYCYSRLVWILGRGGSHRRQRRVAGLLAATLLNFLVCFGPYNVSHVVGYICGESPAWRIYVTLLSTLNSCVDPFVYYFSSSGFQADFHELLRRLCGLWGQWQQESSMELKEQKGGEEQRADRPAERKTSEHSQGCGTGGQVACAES

bFFA2 = target: T5, bFFA2 (Bos taurus, UniProt A0ACM8QIU6); assay: beta-arrestin-2 BRET recruitment; format: cell-based
T5 sequence (A0ACM8QIU6 1-329): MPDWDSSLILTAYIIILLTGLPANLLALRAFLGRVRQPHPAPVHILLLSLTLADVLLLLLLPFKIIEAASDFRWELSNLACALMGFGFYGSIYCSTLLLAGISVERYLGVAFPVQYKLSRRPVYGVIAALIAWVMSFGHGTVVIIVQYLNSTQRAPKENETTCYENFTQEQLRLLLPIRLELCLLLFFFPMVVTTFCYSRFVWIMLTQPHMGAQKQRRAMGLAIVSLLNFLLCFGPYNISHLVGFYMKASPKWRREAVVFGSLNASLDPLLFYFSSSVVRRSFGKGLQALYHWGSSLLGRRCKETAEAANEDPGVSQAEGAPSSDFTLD

hFFA2 [3] = target: T6, hFFA2 (Homo sapiens, UniProt O15552, C141G/H242Q); assay: […]GTPγS incorporation, membranes; format: biochemical
T6 sequence (O15552 1-330 C141G/H242Q): T1 sequence (O15552 1-330 C141G) with H242Q

| Compound | EC50 (hFFA2 [1]) | EC50 (hFFA2 [2]) | EC50 (bFFA3) | EC50 (hFFA3) | EC50 (bFFA2) | EC50 (hFFA2 [3]) |
| --- | --- | --- | --- | --- | --- | --- |
| O=C(O)/C=C/c1ccccc1 [compound 28, trans-cinnamic acid] | 389 µM | > 10000 µM | – | – | 174 µM | – |
| CCC/C=C/C(=O)O [compound 23, trans-2-hexenoic acid] | 3.24 µM | > 10000 µM | – | – | 3.98 µM | – |
| O=C(O)C1=CCCC1 [compound 27, 1-cyclopentenecarboxylic acid] | 83.2 µM | > 10000 µM | – | – | 11 µM | – |
| C/C=C/C=C/C(=O)O [compound 25, 2,4-hexadienoic acid] | 4.57 µM | > 10000 µM | – | – | 4.27 µM | 3.47 µM |
| CC/C=C/C(=O)O [compound 22, trans-2-pentenoic acid] | 33.1 µM | – | – | – | 5.25 µM | – |
| O=C(O)C1=CCCCC1 [compound 29, 1-cyclohexene-1-carboxylic acid] | 158 µM | > 10000 µM | – | – | 60.3 µM | – |
| C=CC=CC(=O)O [compound 24, 2,4-pentadienoic acid] | 22.9 µM | – | – | – | 10 µM | – |
| CC(=CC(=O)O)C(F)(F)F [compound 26, 4,4,4-trifluoro-3-methyl-2-butenoic acid] | 257 µM | > 10000 µM | – | – | 12.9 µM | – |

The remaining lines, values ahead:

| EC50 (hFFA2 [1]) | EC50 (hFFA2 [2]) | EC50 (bFFA3) | EC50 (hFFA3) | EC50 (bFFA2) | EC50 (hFFA2 [3]) | Compound |
| --- | --- | --- | --- | --- | --- | --- |
| 24 µM | > 10000 µM | 126 µM | 204 µM | 20.9 µM | – | CCCCCC(=O)O [C6, caproic acid] |
| – | 1480 µM | 263 µM | 251 µM | 69.2 µM | – | CCCC(=O)O [C4, butyric acid] |
| – | – | 155 µM | 200 µM | 347 ± 7.01 µM | – | CCC(=O)O [C3, propionic acid] |
| 105 µM | > 10000 µM | 158 µM | 69.2 µM | 155 µM | – | CCCCCCC(=O)O [C7, heptanoic acid] |
| – | 1000 µM | 4370 µM | 7590 µM | 2040 µM | – | CC(=O)O [C2, acetic acid] |
| – | 7080 µM | 123 µM | 36.3 µM | 42.7 µM | – | CCCCC(=O)O [C5, valeric acid] |
| 1070 µM | > 10000 µM | > 10000 µM | > 10000 µM | 617 µM | – | CCCCCCCC(=O)O [C8, caprylic acid] |
| – | 2510 µM | > 10000 µM | > 10000 µM | > 10000 µM | – | O=CO [C1, formic acid] |
| – | > 10000 µM | > 10000 µM | > 10000 µM | 3390 µM | – | CCCCCCCCC(=O)O [C9, pelargonic acid] |
